# Reference: patent US20220281848A1, “PYRAZOLE-SUBSTITUTED PYRROLIDINONES AS HERBICIDES” (FMC Corporation, priority 2019, published 2022)
# Tested on: plants
# Assay: Test D pre-emergence, other plants of Tables D1 and D3
# Assay type: in vivo
# Conditions: for damage to plant (100=total damage to plant; 0=no damage to plant), SORVU: preemergent, 20 DAA; for damage to plant, ALOMY / damage to plant, AVEFA / damage to plant, BEAVA / damage to plant, BROTE / damage to plant, BRSNN / damage to plant, CHEAL / damage to plant, GALAP / damage to plant, HORVW / damage to plant, KCHSC / damage to plant, LOLPE / damage to plant, POAAN / damage to plant, POLCO / damage to plant, SINAR / damage to plant, STEME / damage to plant, VERPE: pre-emergence, 100=total damage, 0=no damage
# Summary of the method: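 Seeds treated with herbicide safener; sown in soil; glasshouse, 16 h light, 65% humidity. Sprayed day 1 (pre) or ~day 12 (post). Spray in 0.2% v/v adjuvant. Scored 0–100 damage: 20 DAA pre, 15 d post.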
structure (smiles),measurement,setting,value
CN1C[C@H](c2nn(C)c3c(F)cccc23)[C@@H](C(=O)Nc2cccc(F)c2F)C1=O [Compound 2],"damage to plant (100=total damage to plant; 0=no damage to plant), SORVU",rate 130,0
same,"damage to plant (100=total damage to plant; 0=no damage to plant), SORVU",rate 250,0
same,"damage to plant (100=total damage to plant; 0=no damage to plant), SORVU",rate 500,0
same,"damage to plant, ALOMY","rate 15, 20 DAA",0
same,"damage to plant, AVEFA","rate 15, 20 DAA",0
same,"damage to plant, BEAVA","rate 15, 20 DAA",0
same,"damage to plant, BROTE","rate 15, 20 DAA",0
same,"damage to plant, BRSNN","rate 15, 20 DAA",0
same,"damage to plant, CHEAL","rate 15, 20 DAA",0
same,"damage to plant, GALAP","rate 15, 20 DAA",0
same,"damage to plant, HORVW","rate 15, 20 DAA",0
same,"damage to plant, KCHSC","rate 15, 20 DAA",0
same,"damage to plant, LOLPE","rate 15, 20 DAA",0
same,"damage to plant, POAAN","rate 15, 20 DAA",0
same,"damage to plant, POLCO","rate 15, 20 DAA",0
same,"damage to plant, SINAR","rate 15, 20 DAA",0
same,"damage to plant, STEME","rate 15, 20 DAA",0
same,"damage to plant, VERPE","rate 15, 20 DAA",0
same,"damage to plant, ALOMY","rate 30, 20 DAA",0
same,"damage to plant, AVEFA","rate 30, 20 DAA",0
same,"damage to plant, BEAVA","rate 30, 20 DAA",0
same,"damage to plant, BROTE","rate 30, 20 DAA",0
same,"damage to plant, BRSNN","rate 30, 20 DAA",0
same,"damage to plant, CHEAL","rate 30, 20 DAA",0
same,"damage to plant, GALAP","rate 30, 20 DAA",0
same,"damage to plant, HORVW","rate 30, 20 DAA",0
same,"damage to plant, KCHSC","rate 30, 20 DAA",0
same,"damage to plant, LOLPE","rate 30, 20 DAA",0
same,"damage to plant, POAAN","rate 30, 20 DAA",0
same,"damage to plant, POLCO","rate 30, 20 DAA",0
same,"damage to plant, SINAR","rate 30, 20 DAA",0
same,"damage to plant, STEME","rate 30, 20 DAA",0
same,"damage to plant, VERPE","rate 30, 20 DAA",0
same,"damage to plant, ALOMY","rate 60, 20 DAA",0
same,"damage to plant, AVEFA","rate 60, 20 DAA",0
same,"damage to plant, BEAVA","rate 60, 20 DAA",0
same,"damage to plant, BROTE","rate 60, 20 DAA",0
same,"damage to plant, BRSNN","rate 60, 20 DAA",0
same,"damage to plant, CHEAL","rate 60, 20 DAA",0
same,"damage to plant, GALAP","rate 60, 20 DAA",0
same,"damage to plant, HORVW","rate 60, 20 DAA",0
same,"damage to plant, KCHSC","rate 60, 20 DAA",0
same,"damage to plant, LOLPE","rate 60, 20 DAA",10
same,"damage to plant, POAAN","rate 60, 20 DAA",0
same,"damage to plant, POLCO","rate 60, 20 DAA",0
same,"damage to plant, SINAR","rate 60, 20 DAA",0
same,"damage to plant, STEME","rate 60, 20 DAA",0
same,"damage to plant, VERPE","rate 60, 20 DAA",0
same,"damage to plant, ALOMY","rate 130, 20 DAA",0
same,"damage to plant, AVEFA","rate 130, 20 DAA",0
same,"damage to plant, BEAVA","rate 130, 20 DAA",0
same,"damage to plant, BROTE","rate 130, 20 DAA",10
same,"damage to plant, BRSNN","rate 130, 20 DAA",0
same,"damage to plant, CHEAL","rate 130, 20 DAA",0
same,"damage to plant, GALAP","rate 130, 20 DAA",0
same,"damage to plant, HORVW","rate 130, 20 DAA",0
same,"damage to plant, KCHSC","rate 130, 20 DAA",0
same,"damage to plant, LOLPE","rate 130, 20 DAA",30
same,"damage to plant, POAAN","rate 130, 20 DAA",10
same,"damage to plant, POLCO","rate 130, 20 DAA",20
same,"damage to plant, SINAR","rate 130, 20 DAA",0
same,"damage to plant, STEME","rate 130, 20 DAA",0
same,"damage to plant, VERPE","rate 130, 20 DAA",0
same,"damage to plant, ALOMY","rate 250, 20 DAA",20
same,"damage to plant, AVEFA","rate 250, 20 DAA",0
same,"damage to plant, BEAVA","rate 250, 20 DAA",0
same,"damage to plant, BROTE","rate 250, 20 DAA",20
same,"damage to plant, BRSNN","rate 250, 20 DAA",10
same,"damage to plant, CHEAL","rate 250, 20 DAA",0
same,"damage to plant, GALAP","rate 250, 20 DAA",0
same,"damage to plant, HORVW","rate 250, 20 DAA",10
same,"damage to plant, KCHSC","rate 250, 20 DAA",0
same,"damage to plant, LOLPE","rate 250, 20 DAA",60
same,"damage to plant, POAAN","rate 250, 20 DAA",50
same,"damage to plant, POLCO","rate 250, 20 DAA",20
same,"damage to plant, SINAR","rate 250, 20 DAA",0
same,"damage to plant, STEME","rate 250, 20 DAA",0
same,"damage to plant, VERPE","rate 250, 20 DAA",0
same,"damage to plant, ALOMY","rate 500, 20 DAA",40
same,"damage to plant, AVEFA","rate 500, 20 DAA",10
same,"damage to plant, BEAVA","rate 500, 20 DAA",10
same,"damage to plant, BROTE","rate 500, 20 DAA",20
same,"damage to plant, BRSNN","rate 500, 20 DAA",20
same,"damage to plant, CHEAL","rate 500, 20 DAA",0
same,"damage to plant, GALAP","rate 500, 20 DAA",0
same,"damage to plant, HORVW","rate 500, 20 DAA",20
same,"damage to plant, KCHSC","rate 500, 20 DAA",0
same,"damage to plant, LOLPE","rate 500, 20 DAA",70
same,"damage to plant, POAAN","rate 500, 20 DAA",90
same,"damage to plant, POLCO","rate 500, 20 DAA",60
same,"damage to plant, SINAR","rate 500, 20 DAA",0
same,"damage to plant, STEME","rate 500, 20 DAA",60
same,"damage to plant, VERPE","rate 500, 20 DAA",0
